Laboratory results taken from PMC5390903, “Influence of drug transporters and stereoselectivity on the brain penetration of pioglitazone as a potential medicine against Alzheimer's disease” (Scientific Reports, 2015).

Experiments:
in vivo = settings: 30 mg/kg
Procedure: Our established UPLC-MS/MS method was used to quantify pioglitazone concentrations in plasma and brain samples harvested at different time points (1, 2, 4, 6, and 8 hours) after mice were given either racemic pioglitazone or (+)-pioglitazone.
Error bar represents one SD.
A total of forty mice were split into two treatment groups (n = 20), with one group receiving a single dose of the racemic pioglitazone (30 mg/kg, p.o.) and another group receiving the purified (+)-pioglitazone (30 mg/kg, p.o.). Both compounds were dissolved in Milli-Q water using 1% DMSO as co-solvent. Following oral administration of the test compounds, mice from both treatment groups were split again into five subgroups (n = 4), and mice belonging to different subgroups were sacrificed at different time points (1 hour, 2 hours, 4 hours, 6 hours, and 8 hours after oral dosing). All mice were sacrificed by CO2 euthanasia and blood samples were taken via cardiac puncture. Blood samples were then centrifuged at 4000 g (10 minutes) to collect the plasma. Whole brains were collected following transcardial perfusion with saline to remove blood from organs. […] Pioglitazone concentrations versus time graphs were constructed for both brain and plasma samples, and area under curve (AUC) for both (+)-pioglitazone and racemic pioglitazone were then used to assess each tissue's exposure to pioglitazone. AUC was calculated from time 0 hour to infinity (AUC0–∞) for both types of samples using the trapezoidal rule. Comparisons of pioglitazone concentrations in different sample matrices between the two treatment groups were performed using two-tailed independent t-test with Welch's correction, and statistical significance was defined as P < 0.05.

CHO-APP695 cells = assay: Extracellular amyloid-β42 lowering in CHO-APP695 (sandwich ELISA); assay type: cell-based, Chinese hamster; settings: 48 hours; for effect on increase in extracellular amyloid-β42: 10 μM, versus non-treated CHO-APP695
Procedure: Figure 4 Extracellular amyloid-β42 levels in culture media samples harvested from both CHO-WT and treated or non-treated CHO-APP695 following 48 hours of post-seeding incubation.
CHO (Chinese hamster ovary) cells stably transfected with mouse APP 695 (CHO-APP695) were used as the AD in vitro model in this experiment. CHO-APP695 and the wild type (CHO-WT) were kindly provided by G. S. Dawe (National University of Singapore, Singapore). Both cell lines were incubated at 37°C in the presence of 5% CO2 for all cell culture work. Cell lines were maintained in DMEM culture medium (Sigma D1152) containing 10% FBS and supplemented with 100 units/mL of penicillin and 100 μg/mL of streptomycin.
When cells were used for experiments, both CHO-APP695 and CHO-WT were standardised at third passage and harvested for seeding when the cells were at log-phase growth. Cells were seeded (n = 7) on 24-well cell culture plates at 1 × 10^5 cells/well in 0.5 mL of culture medium. To evaluate amyloid-lowering effects of (+)-pioglitazone and racemic pioglitazone on extracellular amyloid-β42 levels, additional groups (n = 7) of CHO-APP695 treated with (+)-pioglitazone, (+)-pioglitazone + T007, racemic pioglitazone, and racemic pioglitazone + T007 were also seeded. […] Upon completion of seeding after 24 hours, the culture medium in each well was replaced with 0.5 mL of fresh medium. Seeded cells were incubated further for 48 hours before the culture medium was individually harvested. Harvested samples were briefly centrifuged (800 g) for 5 minutes at 4°C before supernatants were transferred into clean 1.8-mL cryogenic vials and snap frozen in liquid nitrogen. All harvested samples were stored at −80°C until analysis.
Amyloid-β42 levels in culture media were harvested 48 hours after seeding incubation and were quantitatively measured using colorimetric sandwich ELISA kits according to the protocols provided by the manufacturer (#SIG-38954 and #SIG-38956 from Covance, Princeton, NJ). […] All absorbance readings were measured using a Tecan Infinite M200 microplate reader (Tecan, Switzerland).

BCRP = test system: BCRP; design: method as in PMID 22828996; settings: 5 mg/kg; mice; cited from earlier work
[1] = rats, dogs, and monkeys; cited from earlier work
[2] = design: method as in PMID 21819568; settings: monkeys; cited from earlier work
[3] = test system: P-gp and BCRP drug efflux transporters at the blood-brain-barrier; assay: In vivo investigation of P-gp and BCRP contributions to limited brain penetration of pioglitazone (brain-to-plasma ratio after transporter inhibitor pre-treatment)
Procedure: (§1) All animals were pre-treated with the respective drug transporter inhibitor(s) 30 minutes before administration of pioglitazone. Thirty minutes after treatment with pioglitazone, all animals were sacrificed and plasma and brain samples were collected. […] The brain-to-plasma ratios of pioglitazone concentrations were used to assess penetration of brain tissue.
(§2) Figure 1 All animals were pre-treated with either the vehicle or the respective drug-transporter inhibitor (n = 6 for each treatment group) 30 minutes prior to drug treatment. Plasma and brain samples were then collected from the animals 30 minutes after pioglitazone treatment. (A) Pioglitazone levels in plasma samples harvested from mice given i.p. pioglitazone with or without pre-treatment of LY335979 (P-gp blocker) and/or Ko143 (BCRP blocker). (B) Brain-to-plasma ratios of pioglitazone concentrations calculated for each mouse given i.p. pioglitazone with or without pre-treatment of LY335979 and/or Ko143.
(§3) A total of 24 mice were divided into four treatment groups (n = 6), where three groups received pre-treatment of efflux pump inhibitors (P-gp inhibitor LY335979, BCRP inhibitor Ko143, and a combination of LY335979 + Ko143) and one group received vehicle pre-treatment as a control. All test compounds (pioglitazone, LY335979, and Ko143) were dissolved in Milli-Q water using 1% DMSO as co-solvent. Pre-treatments of LY335979 (25 mg/kg), Ko143 (5 mg/kg) or a combination of both were given in a single intra-peritoneal (i.p.) injection 30 minutes before pioglitazone administration (i.p. injection, 30 mg/kg). […] Following another 30 minutes after pioglitazone administration, all mice were sacrificed by CO2 euthanasia and their blood samples were collected via cardiac puncture into Eppendorf tubes supplemented with heparin. Transcardial perfusion with saline was then performed on the sacrificed mice to remove traces of blood from organs before the whole brain tissues were harvested. All biological samples were kept on ice immediately after collection. […]

[4] = as above; settings: C57BL/6, mouse, in vivo, 30 mg/kg
Procedure: as §1, §2, §3

P-gp = test system: P-gp; design: method as in PMID 10820137; settings: 25 mg/kg; mice; cited from earlier work

Molecule: CCc1ccc(CCOc2ccc(C[C@H]3SC(=O)NC3=O)cc2)nc1 (single isomer, unassigned) [(+)-pioglitazone]
- brain AUC0–∞ / brain exposure higher than after racemic pioglitazone (in vivo; mouse): 76%
- brain AUC0–∞ of pioglitazone (in vivo; mouse, po): 40 µg·h/mL
- brain Cmax of pioglitazone (in vivo; mouse, po): 5070 ± 380 ng/mL
- peak time (Tmax) of plasma pioglitazone (in vivo; mouse, po): 1 h
- plasma AUC0–∞ of pioglitazone (in vivo; mouse, po): 274 µg·h/mL
- plasma concentration maximum (Cmax) of pioglitazone (in vivo; mouse, po): 39920 ± 6200 ng/mL
- treatment effect on extracellular amyloid-β42 on co-administration of PPARγ selective blocker (T007) (CHO-APP695 cells; 10 μM each): nullified
- effect on increase in extracellular amyloid-β42 (CHO-APP695 cells): reduced significantly

Molecule: COc1ccc2c3c([nH]c2c1)[C@H](CC(C)C)N1C(=O)[C@H](CCC(=O)OC(C)(C)C)NC(=O)[C@@H]1C3 [Ko143]
- inhibition of BCRP (BCRP): 50%

Molecule: CCc1ccc(CCOc2ccc(CC3SC(=O)NC3=O)cc2)nc1 (stereo not drawn) [pioglitazone, Pioglitazone]
- share of serum pioglitazone found in the CSF [1]: approximately 18%
- cerebral spinal fluid (CSF) concentration as % of plasma concentrations [2]: less than 3%
- transporter substrate status ([3]; mouse, in vivo): substrate of P-gp
- pioglitazone brain-to-plasma concentration ratio ([3]; vehicle pre-treatment (control), pioglitazone 30 mg/kg i.p., 30 minutes after pioglitazone, n = 6): 10.65%
- Kp at 30 min [4]: 0.107 ± 0.0125
- AUC(0-inf) (in vivo; C57BL/6, mouse, po): 262 µg·h/mL
- Cmax (in vivo; C57BL/6, mouse, po): 53500 ± 8070 ng/mL
- Tmax (in vivo; C57BL/6, mouse, po): 1 h
- brain AUC0–∞ of pioglitazone (in vivo; C57BL/6, mouse, po): 22.7 µg·h/mL
- brain Cmax of pioglitazone (in vivo; C57BL/6, mouse, po): 4880 ± 340 ng/mL
- effect on increase in extracellular amyloid-β42 (CHO-APP695 cells): reduced significantly

Molecule: LY335979
- inhibition of P-gp (P-gp): 50%
